Results: ChEMBL document CHEMBL3745616, “Identification of a potent inhibitor targeting human lactate dehydrogenase A and its metabolic modulation for cancer cell line” (Bioorg Med Chem Lett, 2016)
Activity calls are given as the source filed them. No cut-off for these calls is given here.

What was measured:
MCF7 [1] = test: Cytotoxicity against human MCF7 cells after 72 hrs by MTT assay; format: functional, cell-based; settings: MCF7, 72 h
[2] = molecular target: L-lactate dehydrogenase A chain (Homo sapiens, UniProt P00338); test: Inhibition of human LDHA using pyruvate as substrate assessed as disappearance of NADH preincubated for 10 mins followed by substrate addition every 2.5 secs for 10 mins by fluorescence analysis
MCF7 [3] = test: Reduction in lactate production in human MCF7 cells at 10 uM after 12 hrs; format: functional, cell-based
MCF7 [4] = test: Decrease in extracellular acidfication rate in human MCF7 cells at 2 to 10 uM after 12 hrs by extracellular flux analysis; format: functional, cell-based
MCF7 [5] = test: Reduction in lactate production in human MCF7 cells at 5 uM after 12 hrs; format: functional, cell-based
MCF7 [6] = test: Increase in oxygen consumption rate in human MCF7 cells at 2 to 10 uM after 12 hrs by extracellular flux analysis; format: functional, cell-based
MCF7 [7] = test: Reduction in lactate production in human MCF7 cells at 5 to 10 uM after 12 hrs; format: functional, cell-based
MCF7 [8] = test: Decrease in proton production rate in human MCF7 cells at 2 to 10 uM after 12 hrs by extracellular flux analysis; format: functional, cell-based

| Structure (SMILES) | IC50 (MCF7 [1]) | IC50 [2] | Activity (MCF7 [3]) | inhibition (MCF7 [4]) | Activity (MCF7 [5]) | Activity (MCF7 [6]) | Activity (MCF7 [7]) | inhibition (MCF7 [8]) |
| --- | --- | --- | --- | --- | --- | --- | --- | --- |
| COc1ncc(-c2ccc3c(Nc4cccc(C(=O)O)c4)c(S(N)(=O)=O)cnc3c2)c(OC)n1 | > 30 µM | 4.8 µM | Active | – | – | – | – | – |
| Cc1nc(C)c(C(=O)OC[C@H]2CCCO2)c(-c2ccccc2C(F)(F)F)c1C(=O)O | 10.8 µM | 7.8 µM | – | – | – | – | – | – |
| Cc1ccccc1OC[C@H](O)Cn1c(NCc2ccccc2)nc2c1c(=O)n(C)c(=O)n2C | 1.54 µM | 0.25 µM | – | Active | Active | Active | Active | Active |
| Cn1c(=O)c2c(nc(NCc3ccccc3)n2C[C@@H](O)COc2ccc(Cl)cc2)n(C)c1=O | 3.5 µM | 2.3 µM | – | – | – | – | – | – |
| CCCC(=O)N(c1ccc2oc(C)c(C(=O)OCC)c2c1)S(=O)(=O)c1ccc(OC)cc1 | > 30 µM | 3.5 µM | – | – | – | – | – | – |
